Series [1] is described as follows: Clarity of prototype shampoo compositions with sodium lauryl sulfate (Example 87). Format: physicochemical. Conditions: room temperature, 6 months. The method, then: The prototype shampoo composition is as follows:
The above formulations were prepared by admixing the above ingredients in listed order and heating the mixture to about 80° C. with rapid stirring. The mixture was then cooled to about 40° C., placed in a clear jar and stored at room temperature for 6 months.

Series [2] can be described thus: Critical micelle concentration, Wilhelmy plate method (Example 90). Format: physicochemical. The method, then: The critical micelle concentration (CMC) is defined as the concentration at which a surfactant forms micelles in aqueous solution. Micellization is the preferred interfacial phenomena, since certain surfactant benefits such as detergency (the solubilization of soils), foaming, wetting or emulsification depend on the formation of these aggregates in solution.
The CMC value of C8 /C10 oxypropyl D-gluconamide was determined by plotting surface tension as a function of log(concentration) and extrapolating linear points to obtain an intersection point. The concentration at this point was taken as the CMC. The technique used was the Wilhelmy plate method and the instrument used was a Lauda Auto-Tensiometer. While wishing not to be bound to theory, it is believed that surfactants with low CMC values form micelles more readily at lower concentrations than those with high CMC values.

A short description of series [3]: Efficiency in surface tension reduction, pC20 (Example 92). Format: physicochemical. The following applies: 60 °C, estimated by extrapolation. The source says: Since surface tension reduction depends on the replacement of water molecules at the interface by surfactant molecules, the efficiency of a surfactant in reducing interfacial tension should reflect the concentration of surfactant at the interface relative to that in bulk liquid phase. A suitable measure of efficiency with which a surfactant performs this function can be described as pC20. This is defined as the negative logarithm of the bulk phase surfactant concentration necessary to reduce the surface tension of water by 20 dyn/cm and is given as:
pC20 =-log [C(-Δγ=20) ]=-log [C20]
C(-Δγ=20) =C20 is the bulk phase surfactant concentration necessary to reduce the surface tension of water by 20 dyn/cm.
In general, pC20 values are usually close to the minimum concentration needed to saturate the interface with surfactant molecules.

The nature of series [4]: Effectiveness in reducing surface tension (Example 93). The following applies: 60 °C, estimated by extrapolation. Format: physicochemical. The source says:
As mentioned before, surface tension reduction depends on the replacement of water molecules at the interface by surfactant molecules, therefore the effectiveness of a surfactant in reducing interfacial surface tension should reflect the saturated concentration of surfactant at the interface relative to that in bulk liquid phase. During this process the surface tension of water steadily decreases as bulk phase surfactant concentration increases. This will continue until the concentration reaches the critical micelle concentration (CMC), above which the surface tension remains nearly unchanged and the interface is saturated with surfactant. The surface tension at the CMC is therefore very close to the minimum interfacial tension or maximum surface pressure that the system can achieve. The surface pressure at this point, IIcmc, is a suitable measure of the effectiveness of a surfactant in reducing surface tension and is given as:
.PI.cmc 20+2.3nRT(Γmax) log [CMC/C20 ]
n=1 which represents the number of ions whose surface concentration changes with the change in liquid phase suffactant concentration.
CMC/C20 =is the ratio of the critical micelle concentration to the bulk phase surfactant concentration necessary to reduce the surface tension of water by 20 dyn/cm.

A short description of series [5]: Effectiveness of adsorption, surface excess concentration at surface saturation (Example 94). Format: physicochemical. Conditions: 60 °C, estimated by extrapolation. The source says:
The surface excess concentration at surface saturation (Γmax) is defined as a measure of the effectiveness of surfactant adsorption at the water/air interface and represents the maximum value to which adsorption can be obtained. Effectiveness of adsorption is related to the interfacial area occupied by the surfactant molecule. The smaller the effective cross-sectional area of a surfactant at the interface, the greater its effectiveness of adsorption. The effectiveness of adsorption is an important factor in determining surfactant properties such as detergency, foaming, wetting or emulsification. While not wishing to be bound by theory, it is believed that surfactants that absorb effectively at the interface tend have tightly packed coherent interfacial films and often provide better surfactant benefits than those with loosely packed noncoherent films. The effectiveness of adsorption of C8 /C10 oxypropyl D-gluconamide was determined using the Gibbs equation given as: […]
ergs/cm^2 (which is equivalent to the slope of a plot of γ

Series [6] is described as follows: Area per molecule at the water/air interface (Example 95). Format: physicochemical. Conditions: 60 °C, estimated by extrapolation. The source says:
The area per molecule of a surfactant at the water/air interface provides information on the degree of packing and the orientation of the adsorbed surfactant molecule. While not wishing to be bound by theory, it is believed that surfactants that have small area per molecule values tend to pack more closely at the interface than those with large area per molecule values. From the surface excess concentration at surface saturation (Γmax), the area per molecule (am) of C8 /C10 oxypropyl D-gluconamide was determined and is given by:
am =1×10^16 /Nav Γmax

The conditions of series [7]: Rosen, cited from earlier work.
The conditions of series [8]: Rosen, cited from earlier work. The source holds these as a separate data set.
For series [9] the following is noted: Rosen, cited from earlier work. This is another data set of the same source.
The conditions of series [10]: Rosen, cited from earlier work. The source holds these as a separate data set.
Series [11] in a line: Foam stability and enhancement of prototype shampoo (sodium/ammonium lauryl sulfate), Ross-Miles Foam Height assay (Example 86). Format: physicochemical. Conditions: 45° C., 4.0% additive in prototype shampoo. The method, then:
The results were compared to identical compositions comprising petrochemitcally derived foam stabilizing agents, in particular, alkanolamides and alcohol ethoxylates. The prototype shampoo composition is as follows:
The compositions were prepared by admixing the ingredients in listed order with rapid stirring at 45°-50° C. Foam stability and enhancement were measured at 0.1% based on sodium and ammonium lauryl sulfate (0.16% total solids) at 45° C. and 0 or 120 parts per million (ppm) hardness calcium:magnesium ion 2:1.

The nature of series [12]: Viscosity of prototype shampoo compositions of Example 86, Brookfield Digital Viscometer. Format: physicochemical. The following applies: 4.0% thickener, Example 86 shampoo, 22° C. The source says:
The results are as follows:

A short description of series [13]: Surface tension at the water/air interface (Example 91). Format: physicochemical. Conditions: 60 °C. The method, then:
An important characteristic feature that surfactants have is the tendency for them to absorb at the water/air interface in an oriented manner, thereby altering the interfacial free energy of that surface. The surface free energy per unit area or surface tension (γ), is a measure of this work and may be considered as the minimum amount of work required to bring sufficient surfactant molecules to the surface.
The surface tension (γ) value of C8 /C10 oxypropyl D-gluconamide was determined and is set forth below: […]

Series [14] can be described thus: Foam stability and enhancement of sodium dodecyl benzene sulfonate, Ross-Miles method (Example 85). Conditions: 30 minutes, 10:90 mole %, 35° C., pH 10. Format: physicochemical. The method, then:
The triolein/calcium stearate mixture was dispersed to the above solutions using a high speed shear mixer at 60° C. and then cooled to 35° C. The triolein/calcium stearate mixture represents an extreme type of antifoam behavior found in sebum soil.
The foaming behavior of the above surfactants was determined by the Ross-Miles Foam Height Assay (Ross, J. and Miles, G. D. Am Soc. for Testing Material Method Dl173-63 Philadelphia, Pa. (1953); Oil & Soap (1958) 62:1260) and the cylinder shaking method.
In the Ross-Miles method, 200 mL of a surfactant solution contained in a pipette of specified dimensions with a 2.9-mm-i.d. orifice is allowed to fall 90 cm onto 50 mL of the same solution contained in a cylindrical vessel maintained at a given temperature by means of a water jacket. The height of the foam produced in the cylindrical vessel is read after 30 minutes has elapsed.
The foam stability and enhancement of the heteroatom containing alkyl aldonamides was further determined using a 10:90 mole percent solution of C8 /C10 oxypropyl D-gluconamide (C8 /C10 OPG): sodium dodecyl benzene sulfonate (C12 LAS) and compared to identical solutions of dodecyl D-gluconamide (C12 Gluc): sodium dodecyl benzene sulfonate in the presence and absence of the triolein/calcium stearate antifoam.

The source of these data is patent US5641480A, “Hair care compositions comprising heteroatom containing alkyl aldonamide compounds” (Lever Brothers Company, Division of Conopco, Inc., priority 1994, dated 1997).

Read-outs that look alike come from different tables or passages of the source.

As for `CCCCCCCCCCCCNC(=O)[C@H](O)[C@@H](O)[C@H](O)[C@H](O)CO` [C12 D-Gluconamide, dodecyl D-gluconamide], the “Appearance (Time)” value in series [1] (3.0% thickener in […] sodium lauryl sulfate shampoo) was “Precipitate (2 days)”; in series [1] (5.0% thickener in […] sodium lauryl sulfate shampoo), “Precipitate (1 hour)”. For the same compound, the CMC entry in series [2] (60 °C) is “None”. In [2] (60 °C table entry / discussion), the water solubility result is “insoluble in water and can not form micelles”.
In the case of `CCCCCCCCCCCCOCCOCCOCCOCCOCCOCCOCCO` [Dodecylhepta(oxyethylene) Ether], the pC20 is 5.41 in [3], 5.26 in [7] (25 °C) and 5.28 in [7] (40 °C). The “.PI.cmc (surface pressure)” value in [4] is 36.8 dyn/cm; in [8] (25 °C) it was 38.3 dyn/cm; in [8] (40 °C), 38.5 dyn/cm. For the same compound, the “Γmax (surface excess concentration at surface saturation)” value in series [5] is recorded as 2.71 × 10^-10 mole/cm^2; in series [9] (25 °C) it was 2.90 × 10^-10 mole/cm^2; in [9] (40 °C), 2.77 × 10^-10 mole/cm^2. The figures for the “am (area per molecule)” value in series [6], in series [10] (25 °C) and in series [10] (40 °C) were 61.0 Å^2, 57.3 Å^2 and 59.9 Å^2, respectively. In addition, the CMC/C20 in [8] (25 °C) was 14.9; in series [8] (40 °C), 13.9.
Turning to `CCCCCCCCCCCCOCCOCCOCCOCCOCCOCCOCCOCCO` [Dodecylocta(oxyethylene) Ether], the values for the pC20 in series [3], in series [7] (25 °C) and in [7] (40 °C) were 5.39, 5.20 and 5.22, respectively. For the same compound, the results for the “.PI.cmc (surface pressure)” value in series [4], in [8] (25 °C) and in series [8] (40 °C) were 36.3 dyn/cm, 37.2 dyn/cm and 37.3 dyn/cm, respectively. Also, the results for the “Γmax (surface excess concentration at surface saturation)” value in [5], in series [9] (25 °C) and in series [9] (40 °C) were 2.40 × 10^-10 mole/cm^2, 2.52 × 10^-10 mole/cm^2 and 2.46 × 10^-10 mole/cm^2, respectively. In addition, the “am (area per molecule)” value in series [6] is reported as 69.0 Å^2; in series [10] (25 °C), 66.0 Å^2; in series [10] (40 °C), 67.4 Å^2. The CMC/C20 is recorded as 17.3 in series [8] (25 °C) and 15.4 in [8] (40 °C).
Turning to `CCCCCCCCCCCC(=O)N(CCO)CCO` [Lauramide DEA, lauramide diethanolamine], in series [11] (0 ppm hardness), the “Final FH after 60 Min.” value amounted to 151 mm and the “Initial FH” value amounted to 190 mm. In addition, in series [11] (120 ppm hardness), the “Final FH after 60 Min.” value is 126 mm and the “Initial FH” value worked out at 159 mm. The same compound came in with a Viscosity in [12] of 2376 Centipoise.
In the case of `O` [Water], the “γ (surface tension)” value in series [13] was 60.2 dyn/cm.
Take “cocoamide monoethanolamine [Cocoamide MEA]”: in [11] (0 ppm hardness), the “Final FH after 60 Min.” value was determined as 70 mm and the “Initial FH” value was 178 mm. Besides, in series [11] (120 ppm hardness), the “Final FH after 60 Min.” value was determined as 53 mm and the “Initial FH” value is 148 mm. For the same compound, the Viscosity in series [12] was determined as 1720 Centipoise.
In the case of “sodium dodecyl benzene sulfonate [C12 LAS]”, the “Foam Height, No Antifoam” value in series [14] came to 131 mm. Moreover, the “Foam Height, With Antifoam” value in [14] (triolein/calcium stearate 1 g/L) worked out at 61 mm.
